Experiments:
Format in all cases: cell-based
HTLV-III/LAV [1] = experiment: Inhibition of cytopathic effect (syncytial giant cell formation) in HTLV-III/LAV infected H9 cells; conditions: cytopathic effect (syncytial giant cell formation) on day 7 post infection 50% that in drug-free control cultures, read-out: CPE* 50% Inhibitory Concentrations
Description: (§1) The antiviral activity of the compounds of the present invention against the HTLV-III/LAV virus was evaluated by determining the degree of inhibition of cytopathic effect (CPE) and reverse transcriptase (RT) activity of the drug in a subline of H9 cells at various concentrations.
(§2) HTLV-III/LAV inoculum was standardized for reverse transcriptase (RT) activity using purified avian myeloblastosis viral RT (BRL Labs, Gaithersberg, MD) and used to infect polybrene treated H9 cells at 0.02 RT units of HTLV-III/LAV per 2 x 10⁶ cells. The virus was adsorbed for two hours at 37°C and then the cells were washed and resuspended in RPMI-10% fetal bovine serum at 2 x 10⁵ cells/ml and dispersed in 1-ml aliquots into 24-well plates.
Syncytial giant cell formation appeared at 5-6 days post infection, and this cytopathic effect (CPE) was quantitatively measured by dispersing 0.1-ml aliquots into 0.1-ml portions of absolute methanol and enumerating the giant cells microscopically. The inhibition of cytopathic effect by treatment with representative compounds of the present invention is shown in the table, together with the inhibitory effect on reverse transcriptase activity.

HTLV-III/LAV [2] = experiment: Inhibition of reverse transcriptase activity in culture medium of HTLV-III/LAV infected H9 cells; conditions: reverse transcriptase in the culture medium on day 10 post infection 50% that in drug-free control cultures, read-out: RT** 50% Inhibitory Concentrations
Description: as §1, §2
Reverse transcriptase activity (RT) was measured using 1-ml culture aliquots which were clarified at 600 xg for 30 minutes, precipitated in 10% polyethylene glycol-0.13 M NaCl at 4°C for eighteen hours, and centrifuged at 600 xg for sixty minutes. The pellet was dissolved in glycerol-Tris buffer (50% glycerol, 25 mM Tris HCl, pH 7.5, 5 mM dithiothreitol, 15 mM KCl, 0.025% Triton-X, and 0.25 mM EDTA). […] Background counts were determined using poly dA oligo dT₁₂₋₁₈ as template and subtracted from the poly rA dT primer to determine the thymidine incorporation specifically due to reverse transcriptase activity. […]

uninfected H9 cells = conditions: human, 6 day
Description: as §1

| Structure (SMILES) | IC50 (HTLV-III/LAV [1]) [µM] | IC50 (HTLV-III/LAV [2]) [µM] | IC50 (HTLV-III/LAV [1]; Human immunodeficiency virus 1, 168 h) [µM] | Cell Number*** 50% Inhibitory Concentrations (uninfected H9 cells) [µM] | IC50 (HTLV-III/LAV [2]; Human immunodeficiency virus 1, 240 h) [µM] |
| --- | --- | --- | --- | --- | --- |
| Nc1ncnc2c1ncn2[C@@H]1O[C@H](COP(=O)(O)O)[C@@H](O)[C@@H]1O [9-(β-D-arabinofuranosyl)adenine, 5′-phosphate] | 18 | 11 | – | – | – |
| Nc1ncnc2c1ncn2[C@@H]1O[C@H](CO)[C@@H](O)[C@@H]1O [9-(β-D-arabinofuranosyl)adenine] | – | – | 7 | >100 | 7 |

From EP0317728A2, “Use of 9-(beta-D-arabinofuranosyl) adenine derivatives for the preparation of pharmaceutical compositions for the treatment of aids” (WARNER-LAMBERT COMPANY, priority 1987, dated 1989)
